From US20260250318A1, “COMPOSITIONS AND METHODS FOR CROSSING THE BLOOD BRAIN BARRIER” (VOYAGER THERAPEUTICS, INC., priority 2022, published 2026)

Key:
Conditions in all cases: synthetic library passage 3, intravenous, relative to wild-type AAV9
[1] = tested on: brain, spinal cord, and DRG of the NHPs; experiment: NGS fold enrichment of synthetic library (passage 3) in NHPs, first cross-species screen; assay type: in vivo, cynomolgus macaques (Macaca fascicularis)
Outline: (§1)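 Synthetic capsid library (passage 3) was given intravenously […] to NHPs aged 2-4 years and to BALB/c and C57Bl/6 mice (n=3 each, 6-8 weeks). After about 28 days in vivo, tissue RNA was RT-PCR amplified and NGS-sequenced; values are fold enrichment per variant relative to wild-type AAV9.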

brain [2] = experiment: NGS fold enrichment of synthetic library (passage 3) in BALB/c mice, first cross-species screen; assay type: in vivo
Outline: as §1

brain [3] = experiment: NGS fold enrichment of synthetic library (passage 3) in C57Bl/6 mice, first cross-species screen; assay type: in vivo
Outline: as §1

[4] = RNA from spinal cord of NHPs, NGS
[5] = RNA from brain of BALB/c mice, NGS
[6] = RNA from brain of C57Bl/6 mice, NGS

| Sequence | Fold enrichment over AAV9 in the brain of NHPs ([1]; RNA NGS, brain of NHPs) [fold] | Fold enrichment over AAV9 in the spinal cord of NHPs ([1]; RNA NGS, spinal cord of NHPs) [fold] | Fold enrichment over AAV9 in the brain of Mice (BALB/c) (brain [2]; RNA NGS, brain of BALB/c mice) [fold] | Fold enrichment over AAV9 in the brain of Mice (C57Bl/6) (brain [3]; RNA NGS, brain of C57Bl/6 mice) [fold] | Fold enrichment over AAV9 in the brain of NHPs ([1]; RNA from brain of NHPs, NGS) [fold] | Fold enrichment over AAV9 in the spinal cord of NHPs [1, 4] [fold] | Fold enrichment over AAV9 in the brain of Mice (BALB/c) (brain [2]; [5]) [fold] | Fold enrichment over AAV9 in the brain of Mice (C57Bl/6) (brain [3]; [6]) [fold] |
| --- | --- | --- | --- | --- | --- | --- | --- | --- |
| GSGEAARYEQNQQT | 1.020 | 0.000 | 0.125 | 0.107 |  |  |  |  |
| GSGEKVHSGQNQQT |  |  |  |  | 1.289 | 0.062 | 0.671 | 0.862 |
| GSGERLHLTQNQQT | 1.885 | 1.456 | 0.245 | 0.387 |  |  |  |  |
| GSGERSISVQNQQT |  |  |  |  | 1.264 | 1.619 | 0.173 | 0.598 |
| GSGEYSRSGQNQQT | 2.145 | 0.745 | 0.205 | 0.617 |  |  |  |  |
| GSGFGPQTGQNQQT | 2.964 | 2.861 | 0.849 | 1.280 |  |  |  |  |
| GSGFHTDSRQNQQT | 1.748 | 4.384 | 0.575 | 7.344 |  |  |  |  |
| GSGFLSDTRQNQQT | 1.566 | 45.953 | 0.575 | 0.473 |  |  |  |  |
| GSGFNQRSEQNQQT | 2.121 | 4.491 | 0.758 | 1.770 |  |  |  |  |
| GSGFPKSTEQNQQT |  |  |  |  | 1.376 | 2.058 | 0.194 | 0.610 |
| GSGFSHSMGKNQQT |  |  |  |  | 1.188 | 9.809 | 0.611 | 1.381 |
| GSGGGLQHNQNQQT |  |  |  |  | 1.163 | 4.098 | 0.778 | 1.137 |
| GSGGLDTRGQNQQT | 2.139 | 6.216 | 0.197 | 0.236 |  |  |  |  |
| GSGGTSVHQQNQQT | 1.629 | 0.000 | 0.195 | 0.585 |  |  |  |  |
| GSGGVTYQSQNQQT | 1.673 | 7.283 | 0.181 | 0.649 |  |  |  |  |
| GSGHAAISQQNQQT | 1.742 | 2.373 | 0.520 | 1.211 |  |  |  |  |
| GSGHAKAVGQNQQT | 1.081 | 4.357 | 0.824 | 0.703 |  |  |  |  |
| GSGHGQVLSQNQQT | 2.213 | 12.133 | 0.661 | 1.880 |  |  |  |  |
| GSGHIYVGIQNQQT | 2.178 | 6.428 | 0.337 | 0.989 |  |  |  |  |
| GSGHLFQSGQNQQT | 1.057 | 0.615 | 0.386 | 0.751 |  |  |  |  |

| Sequence | Fold enrichment over AAV9 in the brain of NHPs ([1]; RNA NGS, brain of NHPs) [fold] | Fold enrichment over AAV9 in the spinal cord of NHPs ([1]; RNA NGS, spinal cord of NHPs) [fold] | Fold enrichment over AAV9 in the brain of Mice (BALB/c) (brain [2]; RNA NGS, brain of BALB/c mice) [fold] | Fold enrichment over AAV9 in the brain of Mice (C57Bl/6) (brain [3]; RNA NGS, brain of C57Bl/6 mice) [fold] | Fold enrichment over AAV9 in the brain of NHPs ([1]; RNA from brain of NHPs, NGS) [fold] | Fold enrichment over AAV9 in the spinal cord of NHPs [1, 4] [fold] | Fold enrichment over AAV9 in the brain of Mice (BALB/c) (brain [2]; [5]) [fold] | Fold enrichment over AAV9 in the brain of Mice (C57Bl/6) (brain [3]; [6]) [fold] |
| --- | --- | --- | --- | --- | --- | --- | --- | --- |
| GSGHLPQSAQNQQT | 2.803 | 7.828 | 0.496 | 0.826 |  |  |  |  |
| GSGHMSDLRQNQQT | 1.073 | 4.291 | 0.328 | 0.555 |  |  |  |  |
| GSGHMTYREKNQQT | 2.633 | 5.267 | 0.540 | 1.257 |  |  |  |  |
| GSGHNQQVRTAPNT | 1.885 | 1.022 | 0.580 | 1.006 |  |  |  |  |
| GSGHPYKAAQNQQT |  |  |  |  | 1.246 | 0.000 | 0.507 | 0.872 |
| GSGHSIRTDQNQQT | 3.074 | 15.600 | 0.148 | 0.229 |  |  |  |  |
| GSGHSPLPQQNQQT | 1.562 | 0.556 | 0.247 | 0.387 |  |  |  |  |
| GSGHSSHSVQNQQT | 3.339 | 3.318 | 0.424 | 0.942 |  |  |  |  |
| GSGHSVSGPQNQQT | 1.993 | 6.259 | 0.619 | 1.370 |  |  |  |  |
| GSGHTNPTRQNQQT | 1.021 | 0.688 | 0.807 | 0.726 |  |  |  |  |
| GSGHVPNSGLNQQT | 2.091 | 0.653 | 1.154 | 1.636 |  |  |  |  |
| GSGIAAQRTQNQQT | 1.665 | 2.691 | 0.754 | 1.062 |  |  |  |  |
| GSGIGSHIPQNQQT |  |  |  |  | 1.319 | 0.173 | 0.597 | 0.822 |
| GSGIIPVSSQNQQT | 6.352 | 0.000 | 0.253 | 0.642 |  |  |  |  |
| GSGIPAPRLQNQQT |  |  |  |  | 1.273 | 4.162 | 0.396 | 0.583 |
| GSGIPQRSGKNQQT | 3.331 | 0.000 | 1.685 | 1.418 |  |  |  |  |
| GSGIPSVKFQNQQT |  |  |  |  | 1.281 | 0.061 | 0.561 | 0.364 |
| GSGIQSSYSQNQQT | 1.517 | 15.978 | 0.684 | 1.032 |  |  |  |  |
| GSGISSRNMQNQQT |  |  |  |  | 1.291 | 6.328 | 0.560 | 1.671 |
| GSGIVTKLGQNQQT |  |  |  |  | 1.174 | 10.571 | 0.242 | 0.599 |
